Measured values taken from patent US11672786B2, “Methods of treating diseases associated with repeat instability” (The Hospital for Sick Children, priority 2016, dated 2023).

Tests used:
[1] = test system: long (CAG)20 slip-outs from (CAG)50●(CTG)30; test: band-shift NA-DNA binding, long (CAG)20 slip-out; design: species or system human; details: NA 0.15-50 μM, 4% polyacrylamide gel
From the text: FIG. 2 are the results of experiments showing that NA binds to long CAG slip-outs. […] The (CAG)n DNA sequence (left) can fold into an hairpin structure involving mismatched A-A pair flanking C-G base pairs (middle). NA molecules can intercalate into the DNA helix, with the 2-amino-1,8-naphthyridine moiety (in red) hydrogen bonding to guanine and 8-azaquinolone moiety (in blue) hydrogen bonding to adenine. […] Long slip-outs extruded as a single slip-out from a fully base-paired backbone of (CTG)n●(CAG)n, as described (Pearson et al., 2002, Nuc. Acids Res., 30:4534-47). DNAs were mixed with increasing concentrations of NA (0.15 μM, 0.75 μM, 7.5 μM and 50 μM) and resolved on 4% polyacrylamide gels. All lanes are from the same gel, and they were separated for clarity. NA-DNA complexes are shown by brackets, free DNA is indicated by arrowheads. […] The relative migration was measured for the linear and the three slip-outs substrates as the ratio of the migration distance of each NA-DNA complex to the migration distance of the free DNA. The migration distance was measured from the well to a consistent center point of each band. […]

[2] = test system: HT1080-(CAG)850 cells; test: cellular distribution by confocal microscopy; assay type: cell-based, human
Method: (§1) Scale bar represents 20 μm. […] The cell viability was estimated with WST-1 assays. Values represent the means of three independent measures±SD. […] Error bars indicate the SD of triplicate experiments. […] The dashed line indicates the peak CAG size. Allele lengths are grouped in bins spanning 10 repeats. More than 230 alleles were sized per group.
HT1080-(CAG)850 cells were incubated with 50-μM NBD-labeled NA for 48 hr and Cell Light Plasma Membrane-RFP, BacMam 2.0 (Life Technologies, Carlsbad, Calif.), then fixed for 15 min at RT with 4% paraformaldehyde and washed 2 times for 10 min in phosphate buffered saline (PBS). Cells were mounted with Vectashield hard-set mounting media that contains DAPI (Vector Laboratories, Burlingame, Calif.). Fluorescence images were obtained using Olympus FV1000D confocal laser scanning microscope (Olympus, Tokyo, Japan).

[3] = test system: HT1080-(CAG)850 cells; test: growth curves of cells; assay type: cell-based, human; details: 50 μM NA
From the text: as §1

[4] = test system: d(CAG)10; details: ESI-TOF MS; cited from earlier work
[5] = test system: mouse striatum; test: histological study of mouse striatum, H&E staining; assay type: in vivo; details: NA in saline injected into striatum
[6] = test system: CAG-CAG; details: cited from earlier work

## naphthyridine-azaquinolone
[1]
  NA binding (band-shift): extensively bound
[2]
  cell permeability: cell-permeable and can enter the nuclei
[3]
  effect on cell proliferation (growth curves): lack of an effect upon cell proliferation
[4]
  number of NA molecules bound to the repeat: at least 6 NA molecules
[5]
  brain morphology: did not alter brain morphology
[6]; estimated
  affinity of each NA molecule/CAG-CAG as Ka: 1.8e+06 M⁻¹
[6]; estimated, read-out: affinity of each NA molecule/CAG-CAG as Kd
  Kd: 560 nM
[6]; previously estimated binding stoichiometry
  ratio of NA molecules to 1 CAG-CAG: 2
